Measured values from patent publication US20230295109A1, “PYRIDINONE COMPOUNDS FOR THE TREATMENT OF AUTOIMMUNE DISEASE” (F. Hoffmann-La Roche AG, priority 2020, published 2023).

Assay: Parallel Artificial Membrane Permeability Assay (PAMPA)
Assay type: in vitro ADME
Protocol: PAMPA (Parallel Artificial Membrane Permeability Assay) is a first-line permeability screen for drug candidates. This assay mimics the transcellular absorption conditions using an artificial phospholipid membrane and generates a permeability value that can be used for compound ranking and optimization as well as input parameters for in silico models to predict intestinal absorption.
Permeation experiments are carried out in hydrophobic PVDF 96-well microtiter filter plates (MultiScreen Filter Plate, Millipore, #MAIPN4550). Each well is coated with PVDF membrane, which is prepared with 5 µL Dodecane (Sigma, D221104) that contains 1% lecithin (Sigma, P3556-1G).
The typical PAMPA experimental protocol is as follows: The donor plate is placed on a Teflon acceptor plate that has been pre-filled with 150 µL of 100 mM PBS buffer (2.6 g KH2PO4 and 18.5 g K2HPO4.3H2O are dissolved in about 1000 mL of ultra-pure water and mixed thoroughly. The pH is adjusted to 7.40 ± 0.05, using either 1 M sodium hydroxide or 1 M hydrochloric acid.) containing 5% DMSO. The filter on the bottom of each acceptor well is filled with 300 µL of 100 mM PBS buffer (2.6 g KH2PO4 and 18.5 g K2HPO4.3H2O are dissolved in about 1000 mL of ultra-pure water, mixed thoroughly. The pH was adjusted to 7.40 ± 0.05, using either 1 M sodium hydroxide or 1 M hydrochloric acid.). The resulting sandwich is incubated at room temperature under constant shaking (300 rpm) for 4 hours. The sandwich is then disassembled. Before incubation, spike 20 µL dosing solution and mix with 250 µL PBS and 130 µL quench solution (acetonitrile) as T0 sample. After incubation, collect 270 µL solutions from acceptor chamber, followed by the addition of 130 µL acetonitrile. Collect 20 µL solution from donor chamber and add 250 µL PBS and 130 µL acetonitrile. The concentration of compound in all samples are determined by LC-MS/MS and the equations for determining the permeability (Pe, 10^-6 cm/s ) are as follows.
VD is the volume of the donor well; VR is the volume of the acceptor well; Area is the active surface area of membrane; Time is the incubation time (14,400 s in this assay); CR and CD are the concentrations of compound in acceptor and donor solutions, respectively, at the completion of the assay; C0 is the concentration of compound in donor solution before incubation.
The main readout of the PAMPA assay is the permeability value Pe expressed in 10^-6 cm/s. Secondary readouts determined are the amounts of compound in the donor and acceptor compartments as well as compound retention in the membrane. Depending on the permeation rate and the membrane retention, compounds are classified as “low” (Pe < 0.2 and membrane retention <20%) or “medium & high” (Pe >= 0.2; or Pe < 0.2 and membrane retention >= 20%). Each sample is measured in triplicate; the standard deviation is determined for the permeation constant Pe.

CCc1nc(N2CCN3CCN(c4cnc(N5CC6(CNCCO6)C5)nc4)CC3C2)ccc1-c1cc(C)c(=O)n(C)c1 (stereo not drawn) [Example 19, 5-[2-ethyl-6-[2-[2-(5-oxa-2,8-diazaspiro[3.5]nonan-2-yl)pyrimidin-5-yl]-3,4,6,7,9,9a-hexahydro-1H-pyrazino[1,2-a]pyrazin-8-yl]-3-pyridyl]-1,3-dimethyl-pyridin-2-one]
Membrane Retention (PAMPA, pH 7.40, 4 hours): 37.320%
Papp at 4 h (PAMPA, pH 7.4, pH 7.40, room temperature, 4 hours, read-out: PAMPA Pe): 0.87 ×10⁻⁶ cm/s
PAMPA category (class from Pe and membrane retention): medium & high (“medium & high” (Pe >= 0.2; or Pe < 0.2 and membrane retention >= 20%))
